Tests used:
[1] = target: T1, YFP-PARP14 MD2 (Homo sapiens, UniProt Q460N5); assay: Laser micro-irradiation assay, recruitment of YFP-PARP14 MD2 to DNA damage sites; type: cell-based; settings: U-2 OS cells
T1 sequence (Q460N5 1003-1190 limits assumed): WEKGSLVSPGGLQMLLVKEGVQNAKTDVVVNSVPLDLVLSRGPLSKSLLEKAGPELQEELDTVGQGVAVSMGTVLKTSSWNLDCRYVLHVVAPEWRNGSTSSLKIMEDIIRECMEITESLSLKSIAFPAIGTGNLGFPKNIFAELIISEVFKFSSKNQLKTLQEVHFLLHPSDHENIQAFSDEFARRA

[2] = target: T2, PARP14 MD2 (Homo sapiens, UniProt Q460N5); assay: Isothermal titration calorimetry; type: binding; settings: negative control, Figure 1D
T2 sequence (Q460N5 994-1191): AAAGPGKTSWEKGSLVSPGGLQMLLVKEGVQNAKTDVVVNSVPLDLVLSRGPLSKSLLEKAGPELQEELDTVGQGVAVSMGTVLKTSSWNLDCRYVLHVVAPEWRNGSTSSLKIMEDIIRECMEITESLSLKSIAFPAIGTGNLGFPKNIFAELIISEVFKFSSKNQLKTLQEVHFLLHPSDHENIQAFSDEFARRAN

Structure (SMILES) | PARP14 MD2 recruitment to laser-induced DNA damage sites ([1]; negative control, concentration not given) | binding to PARP14 MD2 [2] | PARP14 MD2 recruitment to laser-induced DNA damage sites ([1]; 10 µM, pre-treated 1 hour)
CC(=O)Nc1ccncc1-c1cccc2c1[nH]c1ccccc12 [MnK2-68] | did not interfere with PARP14 MD2 recruitment | did not bind | –
O=C(c1cc(Cc2n[nH]c(=O)c3ccccc23)ccc1F)N1CCN(C(=O)C2CC2)CC1 [Olaparib, reference compound] | – | – | recruitment of the macrodomain could not be detected
